Test results reported in patent US20090062120A1, “Agrochemical Composition” (priority 2005, published 2009).

Key:
[1] = assay type: physicochemical; conditions: for External appearance of dilution [5% in water] / Crystal formation in dilution [5% in water; 24 hours, 30° C.] / External appearance of dilution [5% in water; 24 hours, 30° C.] / External appearance of formulation [25° C.; on day of preparation] / External appearance of formulation [after 48 hours at 0° C.]: 2,4-D isopropylamine salt 300 g/l; for External appearance of dilution [5% in water] / Crystal formation in dilution [5% in water; 24 hours, 30° C.] / External appearance of dilution [5% in water; 24 hours, 30° C.]: solvent 5% by volume; for External appearance of dilution [5% in water]: 5% (v/v) dilution in water, 500 ppm CaCO3; for Crystal formation in dilution [5% in water; 24 hours, 30° C.] / External appearance of dilution [5% in water; 24 hours, 30° C.]: 5% dilution in water; for External appearance of formulation [25° C.; on day of preparation] / External appearance of formulation [after 48 hours at 0° C.]: solvent addition 5% by volume
Excerpt: In the form of its amine salts, 2,4-dichlorophenoxyacetic acid tends to crystallize out of concentrated solutions. It is state of the art to use an approximately 5% addition of NMP in order to prevent crystallization. In the present example the isopropylamine salt of 2,4-dichlorophenoxyacetic acid was used, 2,4-D IPA for short.
Concentrated aqueous solutions of 2,4-D in isopropylamine salt form (350 g/l) were admixed with quantities of demineralized water and of the corresponding solvent addition such that the concentration of 2,4-D isopropylamine salt was 300 g/l and that of the solvent under test was 5% v/v. Then the external appearance, instantaneously (see column 2 of Table 5) and after storage at 0° C. […] Particular emphasis was placed on any crystal formation.

[2] = cited from earlier work
[3] = Solubilities of active agrochemical substances in acetylcaprolactam
[4] = Dissolution of tebuconazole in standard aromatic solvents alone; assay type: physicochemical; conditions: exclusive use of Solvesso 150 or Solvesso 200, without acetylcaprolactam; 250 g/l
Excerpt: A corresponding formulation using these solvents alone, therefore, cannot be prepared.

Row | Compound | External appearance of dilution [5% in water] [1] | Crystal formation in dilution [5% in water; 24 hours, 30° C.] [1] | External appearance of dilution [5% in water; 24 hours, 30° C.] [1] | External appearance of formulation [25° C.; on day of preparation] [1] | External appearance of formulation [after 48 hours at 0° C.] [1] | Toxic effect observed in animal experiments [2] | Behavior compared with NMP [1] | Solubility (% by wt.) at 25° C. [3] | Dissolution at the concentration specified in Example 4 [4]
1 | COCC(C)OCC(C)OC (stereo not drawn) [Dipropylene glycol dimethyl ether] | clear | <1% | clear solution, | clear solution | clear solution | – | – | – | –
2 | CCCCCCCCCC(=O)N(C)C [Genagen 4296, N,N-dimethylcapramide] | turbid | <1% | sample separated, | clear solution | clear solution | – | – | – | –
3 | CN1CCCC1=O [N-Methylpyrrolidone, N-Methyl-2-pyrrolidone] | clear | no crystals | clear solution, | clear solution | clear solution | developmentally toxic effect | – | – | –
4 | CC(=O)N1CCCCCC1=O [Peractive LAC, acetylcaprolactam] | clear | no crystals | clear solution, | clear solution | clear solution | – | closest to NMP | – | –
5 | COCCOCCOCCOCCOC [Tetraethylene glycol dimethyl ether] | clear | <1% | clear solution, | clear solution | clear solution | – | – | – | –
6 | COCCOCCOCCOC [Triethylene glycol dimethyl ether] | clear | >1% | clear solution, | clear solution | clear solution | – | – | – | –
7 | CCC(CC)Nc1c([N+](=O)[O-])cc(C)c(C)c1[N+](=O)[O-] [pendimethalin, N-(1-ethylpropyl)-3,4-dimethyl-2,6-dinitrophenylamine] | – | – | – | – | – | – | – | 60-65 % by wt. | –
8 | COC(=O)Nc1cccc(OC(=O)Nc2cccc(C)c2)c1 [phenmedipham] | – | – | – | – | – | – | – | 15-20 % by wt. | –
9 | CC(C)(C)C(O)(CCc1ccc(Cl)cc1)Cn1cncn1 (stereo not drawn) [tebuconazole, R,S-1-p-chlorophenyl-4,4-dimethyl-3-(1H-1,2,4-triazol-1-yl-methyl)pentan-3-ol] | – | – | – | – | – | – | – | – | cannot be dissolved completely
10 | O=CNC(N1CCN(C(NC=O)C(Cl)(Cl)Cl)CC1)C(Cl)(Cl)Cl (stereo not drawn) [triforine, N,N′-[1,4-piperazinediylbis(2,2,2-trichloroethylidene)]bis-formamide] | – | – | – | – | – | – | – | 15-20 % by wt. | –
